Measurements published in ChEMBL document CHEMBL3399964, “Nine new diterpenes from the leaves of plantation-grown Cunninghamia lanceolata” (2015).
Structures can show the parent of a compound that is named as a salt.

Test: Growth inhibition of human PC3 cells by colorimetric MTT assay
Type: functional
Conditions: PC-3

SMILES | GI50
C=CC(=C)[C@@H](C[C@H]1C(=C)CC[C@H]2[C@](C)(CO)CCC[C@]12C)OO | 34.4 µM
C=CC(=C)[C@H](C[C@H]1C(=C)CC[C@H]2[C@](C)(CO)CCC[C@]12C)OO | 50.9 µM
C=CC(=C)[C@@H](C[C@H]1C(=C)CC[C@@H]2[C@]1(C)CCC[C@@]2(C)C(=O)O)OO | 38 µM
C=CC(=C)[C@H](C[C@H]1C(=C)CC[C@@H]2[C@]1(C)CCC[C@@]2(C)C(=O)O)OO | > 100 µM
C=C/C(C)=C/[C@@H](OC(C)=O)[C@H]1C(=C)CC[C@@H]2[C@]1(C)CCC[C@@]2(C)C(=O)O | 57.2 µM
C=C/C(C)=C/[C@@H](OC(C)=O)[C@H]1C(=C)CC[C@@H]2[C@]1(C)CCC[C@@]2(C)C(=O)OC | 58.3 µM
C=C/C(C)=C/C[C@H]1C(=C)CC[C@H]2[C@](C)(CO)CCC[C@]12C | 35 µM
C=C/C(C)=C/C[C@H]1C(=C)CC[C@@H]2[C@]1(C)CCC[C@@]2(C)C(=O)O | > 100 µM
C=CC(=C)CC[C@@H]1[C@@]2(C)CCC[C@](C)(COC(=O)/C=C\c3ccccc3)[C@@H]2CC[C@@]1(C)O | > 100 µM
C=CC(=C)CC[C@@H]1[C@@]2(C)CCC[C@](C)(COC(=O)/C=C/c3ccccc3)[C@@H]2CC[C@@]1(C)O | 10.6 µM
CC(C)c1cc2c3c(c1O)O[C@@H]1CCC(C)(C)[C@H](CC2)[C@@]31C | 27.4 µM
Cc1cc2c(C(C)C)ccc(C)c2cc1O | 54 µM
COc1cccc2c1C(=O)c1c(O)c3c(c(O)c1C2=O)C[C@@](O)(C(=O)CO)C[C@@H]3O[C@H]1C[C@H](N)[C@H](O)[C@H](C)O1 [DOXORUBICIN HYDROCHLORIDE] | 1.1 µM
COc1ccc(-c2cc(=O)c3c(O)cc(O)c(-c4cc(-c5cc(=O)c6c(O)cc(O)cc6o5)ccc4O)c3o2)cc1 [PODOCARPUSFLAVONE A] | > 100 µM
COc1cc(O)c2c(=O)cc(-c3ccc(O)c(-c4c(O)cc(O)c5c(=O)cc(-c6ccc(O)cc6)oc45)c3)oc2c1 [SEQUOIAFLAVONE] | 43.3 µM
